Assay results published in patent publication EP4603105A1, “PHARMACEUTICAL COMPOSITION CONTAINING CYCLIC COMPOUND HAVING SELECTIVE KRAS INHIBITORY EFFECT AGAINST HRAS AND NRAS” (CHUGAI SEIYAKU KABUSHIKI KAISHA, priority 2022, dated 2024).
Like-named read-outs stand apart in the source and are kept apart here.

Experiments:
[1] = biological target: GDP-bound KRAS wild-type protein (Homo sapiens, UniProt P01116); test: Binding to KRAS by surface plasmon resonance (SPR), dissociation constant KD
Method in brief: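 Read-out is KD from 1:1 fitting of single-cycle kinetics sensorgrams, blank-cycle and reference-surface corrected. Proteins were GDP-loaded, biotinylated Avi-fusions freshly captured each cycle at roughly 100–300 RU. Runs were at 30°C in HBS pH 7.4 with MgCl2, GDP and 4% DMSO.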

[2] = tested on: human lung cancer strain NCI-H441; test: NCI-H441 cell proliferation inhibitory activity (CellTiter-Glo, 4 days); format: cell-based; conditions: read-out: NCl-H441 IC50
Method in brief: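 Step one: dispense the test compound in serial DMSO dilutions. Step three: add the reagent and measure […].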

[3] = biological target: HRAS wild-type protein (Homo sapiens, UniProt P01112); test: Binding to HRAS by surface plasmon resonance (SPR), KD and KD ratio to KRAS
Method in brief: (§1)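 Running buffer contained 10 µM GDP and 10 mM MgCl2 to keep RAS in the GDP state, with 4% DMSO at pH 7.4. Compounds were flowed at 100 µL/min in 75 s steps of rising concentration over captured biotin-Avi RAS at 30°C. Sensorgrams were fitted 1:1 for KD.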

[4] = biological target: GDP-bound NRAS wild-type protein (Homo sapiens, UniProt P01111); test: Binding to NRAS by surface plasmon resonance (SPR), KD and KD ratio to KRAS
Method in brief: as §1

[5] = ratio of KD for HRAS wild-type protein to KD for KRAS
[6] = ratio of KD for GDP-bound NRAS wild-type protein to KD for KRAS
[7] = Single Cycle Kinetics, 1:1 binding model
[8] = 50% proliferation inhibitory concentration, four days
[9] = ratio of KD with respect to HRAS wild-type protein to KD with respect to KRAS
[10] = ratio of KD with respect to GDP-bound NRAS wild-type protein to KD with respect to KRAS

Sequence of GDP-bound KRAS wild-type protein (P01116 1-188 isoform P01116-2): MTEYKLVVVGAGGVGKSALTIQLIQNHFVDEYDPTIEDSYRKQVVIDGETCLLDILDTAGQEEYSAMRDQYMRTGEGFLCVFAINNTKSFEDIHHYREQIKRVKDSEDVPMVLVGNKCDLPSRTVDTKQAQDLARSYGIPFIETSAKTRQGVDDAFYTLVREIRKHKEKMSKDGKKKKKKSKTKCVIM
Sequence of HRAS wild-type protein (P01112 whole entry): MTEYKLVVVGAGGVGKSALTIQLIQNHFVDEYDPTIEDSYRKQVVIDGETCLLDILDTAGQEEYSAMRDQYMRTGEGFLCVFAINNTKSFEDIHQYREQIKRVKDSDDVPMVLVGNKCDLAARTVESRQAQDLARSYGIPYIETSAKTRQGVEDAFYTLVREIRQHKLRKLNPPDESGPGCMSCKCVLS
Sequence of GDP-bound NRAS wild-type protein (P01111 whole entry): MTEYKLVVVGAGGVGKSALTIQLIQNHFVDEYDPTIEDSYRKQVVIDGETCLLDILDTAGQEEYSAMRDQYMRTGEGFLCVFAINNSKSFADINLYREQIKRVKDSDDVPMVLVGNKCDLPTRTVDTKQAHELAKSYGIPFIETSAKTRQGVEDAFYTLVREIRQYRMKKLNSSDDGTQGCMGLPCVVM

Kd ([1]; Single Cycle Kinetics) [nM]	IC50 ([2]; NCI-H441 cells, 4 days) [nM]	Kd ([1]; 1:1 binding model) [nM]	Kd [1, 7] [nM]	IC50 [2, 8] [nM]	Compound	HRAS /KRAS [3, 5]	NRAS /KRAS [4, 6]	HRAS /KRAS [3, 9]	NRAS /KRAS [4, 10]
0.94	24.7				CCCN1CC(=O)N(C)[C@H]2C/C=C\CCN(C2=O)[C@@H](Cc2ccc(C(F)F)cc2)C(=O)N(C)CC(=O)N[C@@H](CCc2cc(F)c(C(F)(F)F)c(F)c2)C(=O)N2C[C@H](OC(C)C)C[C@H]2C(=O)N(C)C2(CCC2)C(=O)N(C)[C@@H](C(CC)CC)C(=O)N(C)[C@H](C(=O)N(C)C)CC(=O)N(C)[C@@H](COCC)C(=O)N[C@@H](C2CCCC2)C1=O [PP3498]	A (a compound having 10 or more and less than 20 is denoted as A)	A (a compound having 10 or more and less than 20 is denoted as A)		
0.082	4.5				C#CC[C@H]1C(=O)N[C@@H]([C@@H](C)CC)C(=O)N2CCC[C@H]2C(=O)N(C)[C@H]2C/C=C\CCN(C2=O)[C@@H](Cc2ccc(C(F)(F)F)cc2)C(=O)N(C)CC(=O)N[C@@H](CCc2ccc(C(F)(F)F)c(OC)c2)C(=O)N2C[C@H](OCC)C[C@H]2C(=O)N(C)C2(CCC2)C(=O)N(C)[C@@H](C2CCCC2)C(=O)N(C)[C@H](C(=O)N(C)C)CC(=O)N1C [PP3252]	A (a compound having 10 or more and less than 20 is denoted as A)	A (a compound having 10 or more and less than 20 is denoted as A)		
0.6	38.6				CCO[C@@H]1C[C@H]2C(=O)NC3(CCCC3)C(=O)N(C)[C@@H](C3CCCC3)C(=O)N(C)[C@H](C(=O)N(C)C)CC(=O)N(C)[C@@H]([C@@H](C)OC)C(=O)N[C@@H]([C@@H](C)CC)C(=O)N(C3CC3)CC(=O)N(C)[C@H]3C/C=C\CCN(C3=O)[C@@H](Cc3ccc(C)cc3)C(=O)N(C)CC(=O)N[C@@H](CCc3cc(F)c(C(F)(F)F)c(F)c3)C(=O)N2C1 [PP3482]	A (a compound having 10 or more and less than 20 is denoted as A)	A (a compound having 10 or more and less than 20 is denoted as A)		
0.2	18.4				CCO[C@@H]1C[C@H]2C(=O)NC3(CC(C)(C)C3)C(=O)N(C)[C@@H](C3CCCC3)C(=O)N(C)[C@H](C(=O)N(C)C)CC(=O)N[C@@H](CC3CC3)C(=O)N[C@@H]([C@@H](C)CC)C(=O)N(C)CC(=O)N(C)[C@H]3C/C=C\CCN(C3=O)[C@@H](Cc3ccc(C(F)(F)F)cc3)C(=O)N(C)CC(=O)N[C@@H](CCc3ccc(C(F)(F)F)c(OC)c3)C(=O)N2C1 [PP3448]	A (a compound having 10 or more and less than 20 is denoted as A)	A (a compound having 10 or more and less than 20 is denoted as A)		
	51	1.1			CCC[C@H]1C(=O)N[C@@H]([C@@H](C)CC)C(=O)N(C2CC2)CC(=O)N(C)[C@H]2C/C=C\CCN(C2=O)[C@@H](Cc2ccc(C)cc2)C(=O)N(C)CC(=O)N[C@@H](CCc2ccc(Cl)c(Cl)c2)C(=O)N2C[C@H](OCC)C[C@H]2C(=O)NC2(CC(C)(C)C2)C(=O)N(C)[C@@H](CC(C)(C)C)C(=O)N(C)[C@H](C(=O)N(C)C)CC(=O)N1C [PP2726]	A (a compound having 10 or more and less than 20 is denoted as A)	AA (a compound having 20 or more is denoted as AA)		
			0.11	24	CC[C@H](C)[C@@H]1NC(=O)[C@H](CC(C)C)N(C)C(=O)C[C@@H](C(=O)N(C)C)N(C)C(=O)[C@H](C2CCCC2)N(C)C(=O)C2(CCC2)NC(=O)[C@@H]2CCCN2C(=O)[C@H](CCc2cc(F)c(C(F)(F)F)c(F)c2)NC(=O)CN(C)C(=O)[C@H](Cc2ccc(C(F)(F)F)cc2)N2CC/C=C\C[C@@H](C2=O)N(C)C(=O)CN(C)C1=O [PP1272]			A (a compound having 10 or more and less than 20 is denoted as A)	A (a compound having 10 or more and less than 20 is denoted as A)
			0.081	10.9	C#CC[C@H]1C(=O)N[C@@H]([C@@H](C)CC)C(=O)N(C)CC(=O)N(C)[C@H]2CC[C@@H](C)CN(C2=O)[C@@H](Cc2ccc(C(F)(F)F)cc2)C(=O)N(C)CC(=O)N[C@@H](CCc2ccc(C(F)(F)F)c(Cl)c2)C(=O)N2CCC[C@H]2C(=O)NC2(CCCC2)C(=O)N(C)[C@@H](C2CCCC2)C(=O)N(C)[C@H](C(=O)N(C)C)CC(=O)N1C [PP1340]			B (a compound having 3 or more and less than 10 is denoted as B)	B (a compound having 3 or more and less than 10 is denoted as B)
5.4	57.2				CCC(CC)[C@H]1C(=O)N(C)[C@H](C(=O)N(C)C)CC(=O)N(C)[C@@H](CC2CC2)C(=O)N[C@@H]([C@H](C)CC)C(=O)NCC(=O)N(C)[C@H]2C/C=C\CCN(C2=O)[C@@H](Cc2ccc(C(F)F)cc2)C(=O)N(C)CC(=O)N[C@@H](CCc2ccc(Cl)c(C(F)(F)F)c2)C(=O)N2C[C@H](OC(C)C)C[C@H]2C(=O)N(C)C2(CC(C)(C)C2)C(=O)N1C [PP3508]	A (a compound having 10 or more and less than 20 is denoted as A)	A (a compound having 10 or more and less than 20 is denoted as A)		
1.1	105				CCO[C@@H]1C[C@H]2C(=O)NC3(CC(C)(C)C3)C(=O)N(C)[C@@H](C3CCCC3)C(=O)N(C)[C@H](C(=O)N(C)CC)CC(=O)N(C)[C@@H]([C@@H](C)OC)C(=O)N[C@@H]([C@@H](C)CC)C(=O)N3CCC[C@H]3C(=O)N(C)[C@H]3C/C=C\CCN(C3=O)[C@@H](Cc3ccc(C(F)(F)F)cc3)C(=O)N(C)CC(=O)N[C@@H](CCc3ccc(C(F)(F)F)c(Cl)c3)C(=O)N2C1 [PP3174]	A (a compound having 10 or more and less than 20 is denoted as A)	AA (a compound having 20 or more is denoted as AA)		
1.2	91.9				CCC[C@H]1C(=O)N[C@@H]([C@@H](C)CC)C(=O)N2CCC[C@H]2C(=O)N(C)[C@H]2C/C(F)=C\CCN(C2=O)[C@@H](Cc2ccc(C)cc2)C(=O)N(C)CC(=O)N[C@@H](CCc2cc(F)c(C(F)(F)F)c(F)c2)C(=O)N2C[C@H](OCC)C[C@H]2C(=O)NC2(CCC2)C(=O)N(C)[C@@H](C2CCCC2)C(=O)N(C)[C@H](C(=O)N(C)C)CC(=O)N1C [PP3520]	B (a compound having 3 or more and less than 10 is denoted as B)	B (a compound having 3 or more and less than 10 is denoted as B)		
0.5	22.4				CCCOC[C@H]1C(=O)N[C@@H]([C@@H](C)CC)C(=O)N(CCC)CC(=O)N(C)[C@H]2C/C=C\CCN(C2=O)[C@@H](Cc2ccc(C(F)F)cc2)C(=O)N(C)CC(=O)N[C@@H](CCc2cc(F)c(C(F)(F)F)c(F)c2)C(=O)N2C[C@H](OC3CCC3)C[C@H]2C(=O)N(C)C2(CCC2)C(=O)N(C)[C@@H](C(CC)CC)C(=O)N(C)[C@H](C(=O)N(C)C)CC(=O)N1C [PP3502]	A (a compound having 10 or more and less than 20 is denoted as A)	AA (a compound having 20 or more is denoted as AA)		
	185	2.8			CCO[C@@H]1C[C@H]2C(=O)NC3(CC(C)(C)C3)C(=O)N(C)[C@@H](C(CC)CC)C(=O)N(C)[C@H](C(=O)N(C)C)CC(=O)N(C)[C@@H](COC)C(=O)N[C@@H]([C@@H](C)CC)C(=O)N(C3CC3)CC(=O)N(C)[C@H]3C/C=C\CCN(C3=O)[C@@H](CC3CCC(F)(F)CC3)C(=O)N(C)CC(=O)N[C@@H](CCc3ccc(Cl)c(Cl)c3)C(=O)N2C1 [PP2569]	A (a compound having 10 or more and less than 20 is denoted as A)	AA (a compound having 20 or more is denoted as AA)		
